# Results reported in patent US20120039917A1, “IMMUNO[…]” (priority 2008, published 2012).
# Values joined by “and” are separate entries in the source; they are usually repeats but may differ in a detail not shown here. Identical values can stand only once.
# How the values were obtained:
# unstimulated T cells = assay: HLA-mismatched MLR after transient exposure of unstimulated T cells to PXD; type: cell-based, human; conditions: 10 μM PXD 24 h, washed, then MLR, FACS 8 days later; control MLR 62.6%
# Description: Mixed lymphocyte reactions were established using unrelated, HLA-mismatched healthy donor blood samples as donor/recipient pairs. Stimulator PBMC were γ-irradiated with 30 Gy as described previously (Zenhausen et al., 2007). Responder PBMC were washed twice in PBS, 5,6-carboxy-succinimidyl-fluorescein-ester (CSFE)-labelled (1.25 μM, Sigma) at room temperature for 5 minutes, and washed twice in PBS/10% FCS. Two hundred thousand stimulator and responder cells were added per well at a 1:1 ratio in a 96 U-well plate in T cell medium. Stimulator and responder cells were also plated alone, and all cells were cultured in a 5% CO2, 37° C. humidified incubator. Viability, CFSE fluorescence and cell surface antigen expression were determined by flow cytometry. Cells were washed twice in FACS buffer (PBS, 2% FCS), and resuspended in 50 μL/5×10^5 cells and analysed on a Becton Dickinson LSRII FACS analyser using FlowJo (TreeStar) software.
# The inventors next determined whether a transient exposure to PXD affected the ability of unstimulated T cells to respond normally to foreign antigen. Unstimulated T cells were incubated with 10 μM PXD for 24 h, washed twice and stimulated by adding HLA-mismatched γ-irradiated stimulator cells.
# [1] = Sensitivity of cell types to PXD, viability by AV/PI staining; type: cell-based; conditions: human, normal bone marrow cells; normal BM, 10 μM PXD for 24 h; read-out: [% viable blasts after PXD exposure]/[% viable blasts after 0.1% DMSO exposure]
# Description: (§1) FIG. 6. Sensitivity of different cell types to PXD. Different cell types were incubated with 10 μM PXD for 24 h and viability was determined by AV/PI staining and reported as [% viable blasts after PXD exposure]/[% viable blasts after 0.1% DMSO exposure]. Percentage values are as follows: AML-derived HL60: 16±5 and HL60p°: 54±6, ALL-derived MOLT-4: 44±4, MM-derived U226: 59±6 and RPMI 8226: 12±4, primary AML blasts: 64±5, primary ALL blasts: 23±4, normal BM: 89±5, proliferating T cells: 69±4, resting T cells: 98±6. Results from cell lines are presented as the average±SEM of at least 3 separate experiments, results from bone marrow samples are presented as the average±SD of single experiments performed in duplicate.
# Bone marrow samples from AML (n=22) and ALL (n=8) patients, containing more than 80% blasts, were selected from the tissue bank. […] was determined by AV/PI staining as [% viable blasts after PXD treatment]/[% viable blasts in control sample].
# (§2) Cells were centrifuged at 1400 rpm in a Multifuge 3 s (Heraeus) for 4 min at room temperature, washed in phosphate buffered saline solution, pH 7.3 (PBS) and resuspended in Annexin V binding buffer. […] Staining was analyzed by flow cytometry using a Becton Dickinson Canto II FACS analyser using FlowJo (TreeStar) software.
# resting T cells = assay: Cell viability measured by Trypan blue exclusion; type: cell-based, human; conditions: 10 μM PXD
# Description: (§3) Immediately prior to experiments, frozen PBMC were thawed, centrifuged at 1400 rpm in a Multifuge 3 s (Heraeus) for 4 min, washed in RPMI+10% FCS and resuspended in T cell medium (RPMI+10% FCS+10 μM 2-mercaptoethanol (Sigma), 1×glutamine, 1×non-essential amino acids (Gibco)) at 2×10^6 cells/mL. Cells (2×10^5) were activated by adding 10 μg/mL anti-CD3 and 5 μg/mL anti-CD28 and 20 U/mL IL-2 per well. Cells were incubated at 37° C. in a humidified incubator maintained at 5% CO2 for 4 to 5 days until large numbers of large spherical aggregates or “bursts” of lymphocytes were observed. Activated proliferating T cells were pooled from the wells for further experiments. Resting T cells were incubated for the same length of time but in the presence of 20 U/mL IL-2 only.
# (§4) Proliferating and resting PBMCs were centrifuged at 1400 rpm in a Multifuge 3 s (Heraeus) for 4 min at room temperature, resuspended in fresh T cell medium in 96 U-well plates (200 μL per well at densities of 2×10^6 cells/mL) in the presence of PXD or 0.1% DMSO and incubated in a 5% CO2, 37° C. humidified incubator. Viable cells, as determined by Trypan blue exclusion, were counted in a Neubauer haemocytometer every 24 h for several days.
# proliferating T cells = assay: Cell viability measured by Trypan blue exclusion; type: cell-based, human; conditions: 10 μM PXD
# Description: as §3, §4
# ALL-derived MOLT-4 = assay: Sensitivity of cell types to PXD, viability by AV/PI staining; type: cell-based; conditions: Homo sapiens; MOLT-4, 10 μM PXD for 24 h; read-out: [% viable blasts after PXD exposure]/[% viable blasts after 0.1% DMSO exposure]
# Description: as §1
# (§5) Cell lines were grown in RPMI-1640 medium (GIBCO-BRL, Grand Island, N.Y.) supplemented with 5% (v/v) fetal calf serum, 2 mM […], 25 μg/mL penicillin, 25 μg/mL streptomycin, 50 μg/mL uridine and 1 mM pyruvate to densities of 1-2×10^6 cells/mL (exponential stage), at 37° C. in a humidified incubator maintained at 5% CO2.
# (§6) Cells were centrifuged at 1400 rpm in a Multifuge 3 s (Heraeus) for 4 min at room temperature, washed in phosphate buffered saline solution, pH 7.3 (PBS) and resuspended in Annexin V binding buffer. Small aliquots (0.5-1×10^6 cells) were transferred to 1.5 mL tubes and spun at 1400 rpm in a Multifuge 3 s (Heraeus) for 4 min. Most supernatant was removed and 5 μL PI and 5 μL FITC-labelled AV was added to the wet pellets which were vortexed. After 30 min in the dark on ice, 500 μl of AV binding buffer was added, the cells were centrifuged for 2 min at 1400 rpm, washed once with AV binding buffer and resuspended in 300 μL of AV binding buffer in FACS tubes. Staining was analyzed by flow cytometry using a Becton Dickinson Canto II FACS analyser using FlowJo (TreeStar) software.
# primary AML blasts = assay: Viability of leukemic blasts from bone marrow samples, AV/PI staining; type: cell-based, human
# Description: as §1
# (§7) Bone marrow samples from AML (n=22) and ALL (n=8) patients, containing more than 80% blasts, were selected from the tissue bank. Bone marrow samples were thawed, centrifuged at 1400 rpm in a Multifuge 3 s (Heraeus) for 4 min, washed twice in RPMI and resuspended in RPMI+10% FCS. Aliquots were incubated for 24 h in the presence of 0.1% DMSO (control) or 10 μM PXD and examined for morphology and viability. […] was determined by AV/PI staining as [% viable blasts after PXD treatment]/[% viable blasts in control sample].
# as §6
# primary ALL blasts = assay: as above; type: cell-based, human
# Description: as §1, §7, §6
# MM-derived RPMI 8226 = assay: Sensitivity of cell types to PXD, viability by AV/PI staining; type: cell-based, human; conditions: RPMI 8226, 10 μM PXD for 24 h
# Description: as §1, §5, §2
# [2] = tested on: late stage solid cancer patients; conditions: intravenous infusion, phase I; cited from earlier work
structure (smiles),measurement,setting,value
"Oc1ccc(C2=Cc3ccc(O)cc3OC2)cc1 [PXD, Isoflav-3-en-4′,7-diol]",CD3+CFSEloAV− population after transient exposure,unstimulated T cells,56.2%
same,"viability at 24 h, 10 μM",[1],89 ± 5%
same,viability (Trypan blue exclusion),resting T cells,remain viable
same,viability (Trypan blue exclusion),proliferating T cells,severely compromised
same,viability at 10 µM,ALL-derived MOLT-4,44 ± 4%
same,viability at 10 µM,"primary AML blasts; Homo sapiens, 24 h, primary AML blasts (average), 10 μM PXD for 24 h, read-out: [% viable blasts after PXD exposure]/[% viable blasts after 0.1% DMSO exposure]",64 ± 5%
same,% Viable Blasts,"primary AML blasts; individual AML patient bone marrow samples, 10 μM PXD 24 h, relative to 0.1% DMSO control",23% and 32% and 36% and 39% and 44% and 49% and 55% and 57% and 58% and 62% and 67% and 71% and 75% and 88% and 92% and 95% and 96% and 97% and 99% and 20%
same,viability at 10 µM,"primary ALL blasts; Homo sapiens, 24 h, primary ALL blasts (average), 10 μM PXD for 24 h, read-out: [% viable blasts after PXD exposure]/[% viable blasts after 0.1% DMSO exposure]",23 ± 4%
same,% Viable Blasts,"primary ALL blasts; individual ALL patient bone marrow samples, 10 μM PXD 24 h, relative to 0.1% DMSO control",25% and 29% and 37% and 40% and 7% and 14% and 16% and 19%
same,[% viable blasts after PXD exposure]/[% viable blasts after 0.1% DMSO exposure],MM-derived RPMI 8226,12±4%
same,"stabilization of disease after treatment, some patients",[2],up to 6 months
same,well tolerated dose with minor side effects,[2],≤ 30 mg/kg
